Measured values: ChEMBL document CHEMBL5329224, “Structure-Based Design and Evaluation of Reversible KRAS G13D Inhibitors” (ACS Med Chem Lett, 2024)

Columns and labels:
[1] = target: GTPase KRas (Homo sapiens, UniProt P01116, G13D); experiment: Inhibition of Biotinylated KRAS G13D mutant (unknown origin) incubated for 20 mins in presence of BODIPY-GDP by HTRF assay
[2] = Selectivity ratio of IC50 for inhibition of Biotinylated KRAS G13D mutant (unknown origin) to IC50 for inhibition of Biotinylated wild type KRAS (unknown origin)
[3] = test system: HCT-116; experiment: Antiproliferative activity against human HCT-116 cells assessed as cell growth inhibition incubated for 7 days by Cell Titer-Glo luminescent assay; assay type: functional, cell-based; conditions: HCT-116, 168 h
[4] = Half life in CD-1 mouse at 1 mg/kg,iv measured upto 9 hrs by LC-MS/MS analysis; assay type: ADME, organism-based; conditions: in vivo
[5] = Volume of distribution at steady state in CD-1 mouse at 1 mg/kg,iv measured upto 9 hrs by LC-MS/MS analysis; assay type: ADME, organism-based; conditions: in vivo
[6] = Dissociation constant, pKa of compound; assay type: physicochemical

Sequence of GTPase KRas (P01116 whole entry G13D): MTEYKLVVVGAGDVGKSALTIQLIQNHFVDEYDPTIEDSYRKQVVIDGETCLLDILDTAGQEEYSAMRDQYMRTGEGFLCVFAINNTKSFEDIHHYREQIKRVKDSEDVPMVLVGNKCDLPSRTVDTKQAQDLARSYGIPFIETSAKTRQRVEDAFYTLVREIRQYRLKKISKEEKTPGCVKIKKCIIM

## Cc1cc(N)nc(-c2cc3nc(OC[C@@H]4CCCN4C)nc4c3c(c2Cl)OC[C@@H]2CN(C(=O)CC[C@@]3(C)CCCN3)CCN42)c1C(F)(F)F
[1]
  IC50: 1900 nM
[2]
  Ratio IC50: 2.4

## C=C1CN2CCC[C@@]2(COc2nc3c4c(c(Cl)c(-c5nc(N)cc(C)c5C(F)(F)F)c(F)c4n2)OC[C@@H]2CN(C(=O)/C=C/c4nccc5c4CNCC5)CCN32)C1
[3]
  IC50: 6100 nM
[1]
  IC50: 1.5 nM
[4]
  t1/2: 3.2 h
[5]
  Vdss: 0.42 L/kg

## Cc1cc(N)nc(-c2cc3nc(OC[C@@H]4CCCN4C)nc4c3c(c2Cl)OC[C@@H]2CN(C(=O)C3CC35CCNCC5)CCN42)c1C(F)(F)F (mixture of isomers)
[1]
  IC50: 2400 nM
[2]
  Ratio IC50: 2.1

## Cc1cc(N)nc(-c2cc3nc(OC[C@@H]4CCCN4C)nc4c3c(c2Cl)OC[C@@H]2CN(C(=O)C3CC35CNC5)CCN42)c1C(F)(F)F (mixture of isomers)
[1]
  IC50: 2400 nM
[2]
  Ratio IC50: 1.3

## C=C1CN2CCC[C@@]2(COc2nc(N3CCN(C(=O)/C=C/c4cc(CNC)c(C)cn4)C[C@@H]3C)c3cc(Cl)c(-c4nc(N)cc(C)c4C(F)(F)F)c(F)c3n2)C1
[1]
  IC50: 500 nM
[2]
  Ratio IC50: 9.6

## C=C1CN2CCC[C@@]2(COc2nc(N3CCN(C(=O)/C=C/c4cccc5c4CN4CCC5C4)C[C@@H]3C)c3cc(Cl)c(-c4nc(N)cc(C)c4C(F)(F)F)c(F)c3n2)C1 (stereo in doubt; form 2) [listing 1 of 2 here]
[1]
  IC50: 550 nM

## Cc1cc(N)nc(-c2cc3nc(OC[C@@H]4CCCN4C)nc4c3c(c2Cl)OC[C@@H]2CN(C(=O)C3CCNCC3)CCN42)c1C(F)(F)F
[1]
  IC50: 3200 nM
[2]
  Ratio IC50: 2.2

## C=C1CN2CCC[C@@]2(COc2nc(N3CCN(C(=O)/C=C/c4cc(CNC)ccn4)C[C@@H]3C)c3cc(Cl)c(-c4nc(N)cc(C)c4C(F)(F)F)c(F)c3n2)C1
[1]
  IC50: 530 nM
[2]
  Ratio IC50: 5.7
[6]
  pKa: 8.4

## Cc1cc(N)nc(-c2cc3nc(OC[C@@H]4CCCN4C)nc4c3c(c2Cl)OC[C@@H]2CN(C(=O)CCN)CCN42)c1C(F)(F)F
[1]
  IC50: 2700 nM
[2]
  Ratio IC50: 2.5

## Cc1cc(N)nc(-c2cc3nc(OC[C@@H]4CCCN4C)nc4c3c(c2Cl)OC[C@@H]2CN(C(=O)CC3CCNCC3)CCN42)c1C(F)(F)F
[1]
  IC50: 4800 nM
[2]
  Ratio IC50: 2

## COC1CC(N)(C(=O)N2CCN3c4nc(OC[C@@H]5CCCN5C)nc5cc(-c6nc(N)cc(C)c6C(F)(F)F)c(Cl)c(c45)OC[C@@H]3C2)C1 (mixture of isomers)
[1]
  IC50: 880 nM
[2]
  Ratio IC50: 1.5

## Cc1cc(N)nc(-c2cc3nc(OC[C@@H]4CCCN4C)nc4c3c(c2Cl)OC[C@@H]2CN(C(=O)C3CCC5(CNC5)O3)CCN42)c1C(F)(F)F (mixture of isomers)
[1]
  IC50: 1600 nM
[2]
  Ratio IC50: 2.5

## C=C1CN2CCC[C@@]2(COc2nc(N3CCN(C(=O)/C=C/c4cccc5c4CNC(C)(C)C5)C[C@@H]3C)c3cc(Cl)c(-c4nc(N)cc(C)c4C(F)(F)F)c(F)c3n2)C1
[1]
  IC50: 460 nM
[2]
  Ratio IC50: 16

## C=C1CN2CCC[C@@]2(COc2nc(N3CCN(C(=O)/C=C/c4cccc5c4CN4CCC5C4)C[C@@H]3C)c3cc(Cl)c(-c4nc(N)cc(C)c4C(F)(F)F)c(F)c3n2)C1 (stereo in doubt; form 1) [listing 1 of 2 here]
[1]
  IC50: 410 nM

## C=C1CN2CCC[C@@]2(COc2nc3c4c(c(Cl)c(-c5nc(N)cc(C)c5C(F)(F)F)cc4n2)OC[C@@H]2CN(C(=O)/C=C/c4nccc5c4CNCC5)CCN32)C1
[1]
  IC50: 13 nM
[2]
  Ratio IC50: 7.3

## Cc1cc(N)nc(-c2cc3nc(OC[C@@H]4CCCN4C)nc4c3c(c2Cl)OC[C@@H]2CN(C(=O)/C=C/c3nccc5c3CNCC5)CCN42)c1C(F)(F)F
[1]
  IC50: 180 nM
[2]
  Ratio IC50: 6.1

## Cc1cc(N)nc(-c2cc3nc(OC[C@@H]4CCCN4C)nc4c3c(c2Cl)OC[C@@H]2CN(C(=O)CCC3CCNC3)CCN42)c1C(F)(F)F (mixture of isomers)
[1]
  IC50: 2100 nM
[2]
  Ratio IC50: 2

## C=C1CN2CCC[C@@]2(COc2nc(N3CCN(C(=O)/C=C/c4cc(CN5CCOCC5)ccn4)C[C@@H]3C)c3cc(Cl)c(-c4nc(N)cc(C)c4C(F)(F)F)c(F)c3n2)C1
[1]
  IC50: 4.1 nM
[2]
  Ratio IC50: 1.2
[6]
  pKa: 5.4

## Cc1cc(N)nc(-c2cc3nc(OC[C@@H]4CCCN4C)nc4c3c(c2Cl)OC[C@@H]2CN(C(=O)CCC3(N)CCOC3)CCN42)c1C(F)(F)F (mixture of isomers)
[1]
  IC50: 1300 nM
[2]
  Ratio IC50: 2.5

## C=C1CN2CCC[C@@]2(COc2nc(N3CCN(C(=O)/C=C/c4cccc5c4CN4CCC5C4)C[C@@H]3C)c3cc(Cl)c(-c4nc(N)cc(C)c4C(F)(F)F)c(F)c3n2)C1 (stereo in doubt; form 1) [listing 2 of 2 here]
[2]
  Ratio IC50: 29

## Cc1cc(N)nc(-c2cc3nc(OC[C@@H]4CCCN4C)nc4c3c(c2Cl)OC[C@@H]2CN(C(=O)[C@H](C)N(C)C)CCN42)c1C(F)(F)F
[1]
  IC50: 8200 nM
[2]
  Ratio IC50: 0.94

## Cc1cc(N)nc(-c2cc3nc(OC[C@@H]4CCCN4C)nc4c3c(c2Cl)OC[C@@H]2CN(C(=O)C3(N)CC3)CCN42)c1C(F)(F)F
[1]
  IC50: 550 nM
[2]
  Ratio IC50: 1.8

## Cc1cc(N)nc(-c2cc3nc(OC[C@@H]4CCCN4C)nc4c3c(c2Cl)OC[C@@H]2CN(C(=O)C#CC3CCNC3)CCN42)c1C(F)(F)F (mixture of isomers)
[1]
  IC50: 1600 nM
[2]
  Ratio IC50: 2.3

## C=C1CN2CCC[C@@]2(COc2nc(N3CCN(C(=O)/C=C/c4cccc5c4CNCC5)C[C@@H]3C)c3cc(Cl)c(-c4nc(N)cc(C)c4C(F)(F)F)c(F)c3n2)C1
[3]
  IC50: 2100 nM
[1]
  IC50: 690 nM
[4]
  t1/2: 7.6 h
[5]
  Vdss: 0.9 L/kg

## C=C1CN2CCC[C@@]2(COc2nc(N3CCN(C(=O)/C=C/c4cccc5c4CN4CCC5C4)C[C@@H]3C)c3cc(Cl)c(-c4nc(N)cc(C)c4C(F)(F)F)c(F)c3n2)C1 (stereo in doubt; form 2) [listing 2 of 2 here]
[2]
  Ratio IC50: 27

## Cc1cc(N)nc(-c2cc3nc(OC[C@@H]4CCCN4C)nc4c3c(c2Cl)OC[C@@H]2CN(C(=O)C3CC(N)CCO3)CCN42)c1C(F)(F)F (mixture of isomers)
[1]
  IC50: 14000 nM
[2]
  Ratio IC50: 0.41

## Cc1cc(N)nc(-c2cc3nc(OC[C@@H]4CCCN4C)nc4c3c(c2Cl)OC[C@@H]2CN(C(=O)CC3CC5(CCC5)CN3)CCN42)c1C(F)(F)F (mixture of isomers)
[1]
  IC50: 9000 nM
[2]
  Ratio IC50: 1.1

## Cc1cc(N)nc(-c2cc3nc(OC[C@@H]4CCCN4C)nc4c3c(c2Cl)OC[C@@H]2CN(C(=O)C[C@@H]3CCNC3)CCN42)c1C(F)(F)F
[1]
  IC50: 2600 nM
[2]
  Ratio IC50: 2.1

## Cc1cc(N)nc(-c2cc3nc(OC[C@@H]4CCCN4C)nc4c3c(c2Cl)OC[C@@H]2CN(C(=O)[C@@H]3CC[C@H]3N)CCN42)c1C(F)(F)F
[1]
  IC50: 3000 nM
[2]
  Ratio IC50: 1.5

## Cc1cc(N)nc(-c2c(Cl)c3c4c(ncnc4c2F)N2CCN(C(=O)/C=C/c4nccc5c4CNCC5)C[C@H]2CO3)c1C(F)(F)F
[1]
  IC50: 2700 nM
[2]
  Ratio IC50: 5.9

## C=C1CN2CCC[C@@]2(COc2nc(N3CCN(C(=O)/C=C/c4cc(C5CCN(C)CC5)c(C)cn4)C[C@@H]3C)c3cc(Cl)c(-c4nc(N)cc(C)c4C(F)(F)F)c(F)c3n2)C1
[1]
  IC50: 340 nM
[2]
  Ratio IC50: 15

## C=C1CN2CCC[C@@]2(COc2nc3c4c(c(Cl)c(-c5nc(N)cc(C)c5C(F)(F)F)cc4n2)OC[C@@H]2CN(C(=O)/C=C/c4nccc5c4CN(C)CC5)CCN32)C1
[1]
  IC50: 49 nM
[2]
  Ratio IC50: 0.88

## Cc1cc(N)nc(-c2cc3nc(OC[C@@H]4CCCN4C)nc4c3c(c2Cl)OC[C@@H]2CN(C(=O)CC[C@H]3CCCCN3)CCN42)c1C(F)(F)F
[1]
  IC50: 2000 nM
[2]
  Ratio IC50: 2.3

## Cc1cc(N)nc(-c2cc3nc(OC[C@@H]4CCCN4C)nc4c3c(c2Cl)OC[C@@H]2CN(C(=O)C[C@H]3CCC35CNC5)CCN42)c1C(F)(F)F
[1]
  IC50: 3500 nM
[2]
  Ratio IC50: 1.1

## C=C1CN2CCC[C@@]2(COc2nc(N3CCN(C(=O)/C=C/c4cc(CN(C)C)c(C)cn4)C[C@@H]3C)c3cc(Cl)c(-c4nc(N)cc(C)c4C(F)(F)F)c(F)c3n2)C1
[1]
  IC50: 520 nM
[2]
  Ratio IC50: 9.2

## Cc1cc(N)nc(-c2cc3nc(OC[C@@H]4CCCN4C)nc4c3c(c2Cl)OC[C@@H]2CN(C(=O)CC[C@@H]3CCCCN3)CCN42)c1C(F)(F)F
[1]
  IC50: 1700 nM
[2]
  Ratio IC50: 2.5
